The record followed here is patent publication US6812236B2, “Compounds useful in therapy” (Pfizer Inc., priority 1999, dated 2004).

SMILES strings stand for the structures.

Broadly, the Ki is the dissociation constant of the complex between target and ligand, obtained from inhibition or displacement.

T1 sequence (A0A0F6TMT6 1-401): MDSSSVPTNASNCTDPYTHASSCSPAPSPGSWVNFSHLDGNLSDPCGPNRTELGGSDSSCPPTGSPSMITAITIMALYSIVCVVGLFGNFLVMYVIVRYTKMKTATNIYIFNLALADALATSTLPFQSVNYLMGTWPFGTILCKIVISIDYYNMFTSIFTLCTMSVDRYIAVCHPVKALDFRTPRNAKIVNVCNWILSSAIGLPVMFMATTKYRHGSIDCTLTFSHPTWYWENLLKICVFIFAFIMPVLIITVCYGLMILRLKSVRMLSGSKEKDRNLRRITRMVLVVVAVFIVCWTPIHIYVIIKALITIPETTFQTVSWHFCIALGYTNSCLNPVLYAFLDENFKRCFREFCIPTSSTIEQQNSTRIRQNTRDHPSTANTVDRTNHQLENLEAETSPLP

The assay concerns the target T1, mu opioid receptor (Canis lupus familiaris, UniProt A0A0F6TMT6).
T1 construct: Laboratory bred beagles were used as a source of dog brain tissue; from tissue; host or cells: beagle dog brain without cerebellum, washed membrane pellet
The assay is described as follows: mu opioid receptor binding assay in dog brain membranes (3H-DAMGO displacement). The conditions noted are these: dog brain tissue, read-out: Ki values for the μ receptor. How it is done: The assays were conducted by the following procedure.
Laboratory bred beagles were used as a source of dog brain tissue. Animals were euthanised, their brains removed and the cerebellum discarded. The remaining brain tissue was sectioned into small pieces approximately 3 g in weight and homogenised in 50 mM Tris pH 7.4 buffer at 4° C. using a Kinematica Polytron™ tissue homogeniser. The resulting homogenate was centrifuged at 48,400× g for 10 minutes and the supernatant discarded. The pellet was resuspended in Tris buffer and incubated at 37° C. for 10 minutes. Centrifugation, resuspension and incubation steps were repeated twice more, and the final pellet was resuspended in Tris buffer and stored at −80° C. Membrane material prepared in this manner could be stored for up to four weeks prior to use.
For mu assays, increasing concentrations of experimental compound, (5×10^−12 to 10^−5 M), Tris buffer and ^3H ligand, ([D-Ala^2,N-Me-Phe^4,Gly-ol^5]-Enkephalin, DAMGO), were combined in polystyrene tubes. The reaction was initiated by the addition of tissue, and the mixture was incubated at room temperature for 90 minutes. The reaction was terminated by rapid filtration using a Brandel Cell Harvester™ through Betaplate™ GF/A glass fibre filters pre-soaked in 50 mM Tris pH 7.4, 0.1% polyethylenimine buffer. The filters were then washed three times with 0.5 mL ice-cold Tris pH 7.4 buffer. Washed filters were placed in bags and Starscint™ scintillant added. Bags containing the filters and scintillant were heat sealed and counted by a Betaplate™ 1204 beta counter.
Duplicate samples were run for each experimental compound and the data generated was analysed using IC50 analysis software in Graphpad Prism. Ki values were calculated using Graphpad Prism according to the following formula: […]
where IC50 is the concentration at which 50% of the ^3H ligand is displaced by the test compound and KD is the dissociation constant for the ^3H ligand at the receptor site.
For `CCCCCCN1CCC(C)(c2cccc(C(=O)NC(C)C)c2)C(C)C1` (stereo not shown) [Example 4, 1-Hexyl-3,4-dimethyl-4-(3-(N-isopropyl)amidophenyl)-piperidine], the Ki was no more than 4 µM.
In the case of `CCCCCCN1CCC(C)(c2cccc(C(=O)NCC)c2)C(C)C1` (stereo not shown) [Example 8, 1-Hexyl-3,4-dimethyl-4-(3-(N-ethyl)amidophenyl)-piperidine], the Ki was no more than 4 µM.
Turning to `CCNC(=O)c1cccc(C2(C)CCN(CCCCC(C)C)CC2C)c1` (stereo not shown) [Example 18, 1-(5-Methylhexyl)-3,4-dimethyl-4-(3-(N-ethyl)-amidophenyl)piperidine], the Ki is no more than 4 µM.
Take `CCNC(=O)c1cccc(C2(C)CCN(CCCCCC#N)CC2C)c1` (stereo not shown) [Example 20, 1-(5-Cyanopentyl)-3,4-dimethyl-4-(3-(N-ethyl)-amidophenyl)piperidine]: the Ki was no more than 4 µM.
